# Laboratory results reported in patent US20220187282A1, “CARDIOMYOCYTE PROLIFERATION” (The Council of the Queensland Institute of Medical Research, priority 2019, published 2022).
# Read-outs that look alike come from different tables or passages of the source.
# Columns and labels:
# Assay type in all cases: biochemical
# kinases [1] = target: kinases (Homo sapiens, UniProt Q14680); settings: MELK FRET-Z-Lyte SP; Test Conc(μM):ATP Conc(μM) 1:25
# kinases [2] = target: kinases (Homo sapiens, UniProt Q86YV6); settings: MYLK4 FRET-Lantha SP; Test Conc(μM) 1
# kinases [3] = target: kinases (Homo sapiens, UniProt Q9H422); settings: HIPK3 (YAK1) FRET-Z-Lyte SP; Test Conc(μM):ATP Conc(μM) 1:25
# kinases [4] = target: kinases (Homo sapiens, UniProt P80192); settings: MAP3K9 (MLK1) FRET-Z-Lyte SP; Test Conc(μM):ATP Conc(μM) 1:75
# kinases [5] = target: kinases (Homo sapiens, UniProt Q99759); settings: MAP3K3 (MEKK3) FRET-Lantha SP; Test Conc(μM) 1
# kinases [6] = target: kinases (Homo sapiens, UniProt O96017); settings: CHEK2 (CHK2) FRET-Z-Lyte SP; Test Conc(μM):ATP Conc(μM) 1:75
# kinases [7] = target: kinases (Homo sapiens, UniProt Q13131)
# kinases [8] = target: kinases (Homo sapiens, UniProt Q8N568); settings: DCAMKL2 (DCK2) FRET-Z-Lyte SP; Test Conc(μM):ATP Conc(μM) 1:150
# kinases [9] = target: kinases (Homo sapiens, UniProt P53355); settings: DAPK1 FRET-Adapta SP; Test Conc(μM):ATP Conc(μM) 1:5
# kinases [10] = target: kinases (Homo sapiens, UniProt P29376); settings: LTK (TYK1) FRET-Z-Lyte SP; Test Conc(μM):ATP Conc(μM) 1:75
# kinases [11] = target: kinases (Homo sapiens, UniProt P42680); settings: TEC FRET-Lantha SP; Test Conc(μM) 1
# kinases [12] = target: kinases (Homo sapiens, UniProt P51812); settings: RPS6KA3 (RSK2) FRET-Z-Lyte SP; Test Conc(μM):ATP Conc(μM) 1:10
# kinases [13] = target: kinases (Homo sapiens, UniProt Q14164); settings: IKBKE (IKK epsilon) Z-Lyte SP; Test Conc(μM):ATP Conc(μM) 1:10
# kinases [14] = target: kinases (Homo sapiens, UniProt P16591); settings: FER FRET-Z-Lyte SP; Test Conc(μM):ATP Conc(μM) 1:25
# kinases [15] = target: kinases (Homo sapiens, UniProt Q9UEW8); settings: STK39 (STLK3) FRET-Lantha SP; Test Conc(μM) 1
# kinases [16] = target: kinases (Homo sapiens, UniProt Q96GD4); settings: AURKB (Aurora B) Z-Lyte SP; Test Conc(μM):ATP Conc(μM) 1:75
# kinases [17] = target: kinases (Homo sapiens, UniProt Q8TF76); settings: GSG2 (Haspin) FRET-Adapta SP; Test Conc(μM):ATP Conc(μM) 1:25
# kinases [18] = target: kinases (Homo sapiens, UniProt Q00535)
# kinases [19] = target: kinases (Homo sapiens, UniProt Q9UIK4); settings: DAPK2 FRET-Lantha SP; Test Conc(μM) 1
# kinases [20] = target: kinases (Homo sapiens, UniProt Q9H792); settings: PEAK1 FRET-Z-Lyte SP; Test Conc(μM):ATP Conc(μM) 1:50
# kinases [21] = target: kinases (Homo sapiens, UniProt P51451); settings: BLK FRET-Z-Lyte SP; Test Conc(μM):ATP Conc(μM) 1:25
# kinases [22] = target: kinases (Homo sapiens, UniProt Q05513); settings: PRKCZ (PKC zeta) Z-Lyte SP; Test Conc(μM):ATP Conc(μM) 1:5
# kinases [23] = target: kinases (Homo sapiens, UniProt Q16584); settings: MAP3K11 (MLK3) FRET-Lantha SP; Test Conc(μM) 1
# kinases [24] = target: kinases (Homo sapiens, UniProt P22694); settings: PRKACB FRET-Lantha SP; Test Conc(μM) 1
# kinases [25] = target: kinases (Homo sapiens, UniProt P49760); settings: CLK2 FRET-Z-Lyte SP; Test Conc(μM):ATP Conc(μM) 1:25
# kinases [26] = target: kinases (Homo sapiens, UniProt O75716); settings: STK16 (PKL12) FRET-Lantha SP; Test Conc(μM) 1
# kinases [27] = target: kinases (Homo sapiens, UniProt P48736); settings: PIK3CG (p110 gamma) Adapta SP; Test Conc(μM):ATP Conc(μM) 1:25
# [28] = AMPK (A1/B1/G2) FRET-Lantha SP, Test Conc(μM) 1
# [29] = AMPK (A1/B1/G3) FRET-Lantha SP, Test Conc(μM) 1
# [30] = AMPK (A1/B2/G1) FRET-Lantha SP, Test Conc(μM) 1
# [31] = AMPK A1/B1/G1 FRET-Z-lyte SP, Test Conc(μM):ATP Conc(μM) 1:50
# [32] = AMPK A1/B2/G2 FRET-Z-Lyte SP, Test Conc(μM):ATP Conc(μM) 1:10
# [33] = AMPK A1/B2/G3 FRET-Z-Lyte SP, Test Conc(μM):ATP Conc(μM) 1:10
# [34] = CDK5 (Inactive) FRET-Lantha SP, Test Conc(μM) 1
# [35] = CDK5/p25 FRET-Z-Lyte SP, Test Conc(μM):ATP Conc(μM) 1:10
# [36] = CDK5/p35 FRET-Z-Lyte SP, Test Conc(μM):ATP Conc(μM) 1:10
# kinases (Homo sapiens, UniProt Q00535), sequence (Q00535 whole entry): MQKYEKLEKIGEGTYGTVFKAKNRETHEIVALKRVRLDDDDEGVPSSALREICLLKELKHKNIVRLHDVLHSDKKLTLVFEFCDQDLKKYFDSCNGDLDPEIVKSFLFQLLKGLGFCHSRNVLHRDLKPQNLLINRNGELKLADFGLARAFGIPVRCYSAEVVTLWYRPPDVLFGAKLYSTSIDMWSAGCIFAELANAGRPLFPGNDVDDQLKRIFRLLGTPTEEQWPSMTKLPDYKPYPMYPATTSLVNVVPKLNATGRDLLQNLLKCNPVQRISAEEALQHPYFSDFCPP
# kinases (Homo sapiens, UniProt Q13131), sequence (Q13131 whole entry): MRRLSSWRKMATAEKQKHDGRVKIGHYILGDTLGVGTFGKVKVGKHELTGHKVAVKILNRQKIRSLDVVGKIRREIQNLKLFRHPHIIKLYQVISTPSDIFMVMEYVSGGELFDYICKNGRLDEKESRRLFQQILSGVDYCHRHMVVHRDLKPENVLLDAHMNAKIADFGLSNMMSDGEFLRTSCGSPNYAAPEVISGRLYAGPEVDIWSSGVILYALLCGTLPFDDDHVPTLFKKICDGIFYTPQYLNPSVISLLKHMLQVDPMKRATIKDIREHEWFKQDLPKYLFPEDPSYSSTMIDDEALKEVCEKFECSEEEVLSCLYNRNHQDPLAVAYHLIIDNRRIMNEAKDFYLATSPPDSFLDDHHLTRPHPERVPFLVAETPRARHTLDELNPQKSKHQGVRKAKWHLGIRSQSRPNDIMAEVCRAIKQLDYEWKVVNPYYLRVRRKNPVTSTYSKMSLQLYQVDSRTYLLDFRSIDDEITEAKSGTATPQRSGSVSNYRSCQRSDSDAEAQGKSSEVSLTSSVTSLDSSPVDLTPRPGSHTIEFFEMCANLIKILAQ
# kinases (Homo sapiens, UniProt P16591), sequence (P16591 whole entry): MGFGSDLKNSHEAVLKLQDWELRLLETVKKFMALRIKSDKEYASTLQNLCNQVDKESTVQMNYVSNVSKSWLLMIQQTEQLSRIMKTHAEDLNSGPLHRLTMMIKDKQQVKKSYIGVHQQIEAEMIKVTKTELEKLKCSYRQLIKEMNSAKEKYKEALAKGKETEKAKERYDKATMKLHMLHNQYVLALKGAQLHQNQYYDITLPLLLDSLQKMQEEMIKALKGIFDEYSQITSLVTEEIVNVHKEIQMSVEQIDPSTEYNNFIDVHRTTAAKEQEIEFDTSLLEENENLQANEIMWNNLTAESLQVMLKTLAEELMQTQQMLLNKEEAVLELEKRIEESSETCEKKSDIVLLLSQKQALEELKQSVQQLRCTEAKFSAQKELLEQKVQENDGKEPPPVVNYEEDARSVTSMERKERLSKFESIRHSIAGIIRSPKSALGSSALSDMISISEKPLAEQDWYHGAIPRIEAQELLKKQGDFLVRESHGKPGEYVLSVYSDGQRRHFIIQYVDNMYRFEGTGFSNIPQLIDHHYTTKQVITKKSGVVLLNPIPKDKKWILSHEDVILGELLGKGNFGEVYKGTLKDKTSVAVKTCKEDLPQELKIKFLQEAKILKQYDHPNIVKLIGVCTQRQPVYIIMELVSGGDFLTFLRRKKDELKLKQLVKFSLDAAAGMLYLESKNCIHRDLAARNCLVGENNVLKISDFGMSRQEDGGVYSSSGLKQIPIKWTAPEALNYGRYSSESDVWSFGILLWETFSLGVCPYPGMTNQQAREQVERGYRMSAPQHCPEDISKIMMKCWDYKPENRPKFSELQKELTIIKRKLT
# kinases (Homo sapiens, UniProt P48736), sequence (P48736 whole entry): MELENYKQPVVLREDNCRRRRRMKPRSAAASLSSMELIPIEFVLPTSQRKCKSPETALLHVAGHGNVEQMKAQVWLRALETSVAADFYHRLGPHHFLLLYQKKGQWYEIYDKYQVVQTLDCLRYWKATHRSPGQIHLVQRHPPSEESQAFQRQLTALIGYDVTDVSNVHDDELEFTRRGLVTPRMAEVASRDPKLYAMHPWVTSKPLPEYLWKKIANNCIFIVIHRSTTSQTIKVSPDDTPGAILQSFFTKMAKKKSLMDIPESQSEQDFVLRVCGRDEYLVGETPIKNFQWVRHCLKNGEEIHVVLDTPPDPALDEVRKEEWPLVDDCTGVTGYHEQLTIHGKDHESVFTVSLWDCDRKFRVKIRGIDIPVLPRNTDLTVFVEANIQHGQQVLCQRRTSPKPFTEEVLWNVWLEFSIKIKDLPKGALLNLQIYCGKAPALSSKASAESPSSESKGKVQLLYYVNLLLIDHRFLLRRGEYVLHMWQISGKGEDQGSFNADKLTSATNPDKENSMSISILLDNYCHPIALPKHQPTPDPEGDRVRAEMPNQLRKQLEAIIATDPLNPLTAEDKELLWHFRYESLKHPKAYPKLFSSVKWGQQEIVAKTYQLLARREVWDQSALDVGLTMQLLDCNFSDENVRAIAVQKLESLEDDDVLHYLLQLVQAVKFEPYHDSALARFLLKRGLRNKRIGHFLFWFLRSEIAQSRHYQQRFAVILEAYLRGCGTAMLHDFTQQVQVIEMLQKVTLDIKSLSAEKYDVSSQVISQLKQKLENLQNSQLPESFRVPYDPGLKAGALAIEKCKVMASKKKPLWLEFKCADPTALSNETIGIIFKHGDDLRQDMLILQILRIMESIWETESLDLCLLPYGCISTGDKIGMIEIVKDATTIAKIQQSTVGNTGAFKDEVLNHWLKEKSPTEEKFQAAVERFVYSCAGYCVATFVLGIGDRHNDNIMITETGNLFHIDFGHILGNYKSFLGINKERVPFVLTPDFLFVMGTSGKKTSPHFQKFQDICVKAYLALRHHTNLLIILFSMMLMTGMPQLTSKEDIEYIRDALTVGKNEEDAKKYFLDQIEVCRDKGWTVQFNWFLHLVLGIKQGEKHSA
# kinases (Homo sapiens, UniProt Q99759), sequence (Q99759 whole entry): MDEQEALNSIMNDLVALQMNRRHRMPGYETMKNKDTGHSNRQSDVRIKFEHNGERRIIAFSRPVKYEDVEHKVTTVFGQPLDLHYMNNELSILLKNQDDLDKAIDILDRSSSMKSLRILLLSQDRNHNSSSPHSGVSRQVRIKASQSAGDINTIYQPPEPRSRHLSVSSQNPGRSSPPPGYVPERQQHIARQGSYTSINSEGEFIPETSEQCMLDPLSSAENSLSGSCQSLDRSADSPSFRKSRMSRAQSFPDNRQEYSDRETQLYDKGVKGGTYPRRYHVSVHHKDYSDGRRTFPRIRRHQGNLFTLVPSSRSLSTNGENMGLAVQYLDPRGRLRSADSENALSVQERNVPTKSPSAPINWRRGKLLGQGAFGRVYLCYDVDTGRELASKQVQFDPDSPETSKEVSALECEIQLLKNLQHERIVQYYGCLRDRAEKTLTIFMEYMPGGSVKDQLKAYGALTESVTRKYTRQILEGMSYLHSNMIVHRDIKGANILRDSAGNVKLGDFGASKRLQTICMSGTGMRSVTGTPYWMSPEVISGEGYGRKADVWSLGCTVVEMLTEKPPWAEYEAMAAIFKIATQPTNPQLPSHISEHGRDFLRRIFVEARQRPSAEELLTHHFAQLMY
# kinases (Homo sapiens, UniProt Q05513), sequence (Q05513 whole entry): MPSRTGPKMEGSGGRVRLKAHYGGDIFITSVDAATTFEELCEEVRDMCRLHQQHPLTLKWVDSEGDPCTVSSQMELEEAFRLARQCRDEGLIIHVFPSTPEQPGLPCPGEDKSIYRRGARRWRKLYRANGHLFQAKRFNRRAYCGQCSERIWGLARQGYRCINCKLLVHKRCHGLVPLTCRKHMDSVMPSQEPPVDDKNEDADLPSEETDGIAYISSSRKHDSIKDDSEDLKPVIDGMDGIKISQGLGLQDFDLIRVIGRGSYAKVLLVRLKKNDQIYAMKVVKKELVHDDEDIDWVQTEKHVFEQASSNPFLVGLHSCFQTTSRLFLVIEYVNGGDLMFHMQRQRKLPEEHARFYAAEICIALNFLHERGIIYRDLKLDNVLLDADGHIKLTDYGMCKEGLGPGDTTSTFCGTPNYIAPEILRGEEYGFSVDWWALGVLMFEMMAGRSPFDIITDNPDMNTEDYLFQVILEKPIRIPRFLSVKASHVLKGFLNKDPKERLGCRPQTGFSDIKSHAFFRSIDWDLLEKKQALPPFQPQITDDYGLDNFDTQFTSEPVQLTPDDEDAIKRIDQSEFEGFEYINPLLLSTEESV
# kinases (Homo sapiens, UniProt Q16584), sequence (Q16584 whole entry): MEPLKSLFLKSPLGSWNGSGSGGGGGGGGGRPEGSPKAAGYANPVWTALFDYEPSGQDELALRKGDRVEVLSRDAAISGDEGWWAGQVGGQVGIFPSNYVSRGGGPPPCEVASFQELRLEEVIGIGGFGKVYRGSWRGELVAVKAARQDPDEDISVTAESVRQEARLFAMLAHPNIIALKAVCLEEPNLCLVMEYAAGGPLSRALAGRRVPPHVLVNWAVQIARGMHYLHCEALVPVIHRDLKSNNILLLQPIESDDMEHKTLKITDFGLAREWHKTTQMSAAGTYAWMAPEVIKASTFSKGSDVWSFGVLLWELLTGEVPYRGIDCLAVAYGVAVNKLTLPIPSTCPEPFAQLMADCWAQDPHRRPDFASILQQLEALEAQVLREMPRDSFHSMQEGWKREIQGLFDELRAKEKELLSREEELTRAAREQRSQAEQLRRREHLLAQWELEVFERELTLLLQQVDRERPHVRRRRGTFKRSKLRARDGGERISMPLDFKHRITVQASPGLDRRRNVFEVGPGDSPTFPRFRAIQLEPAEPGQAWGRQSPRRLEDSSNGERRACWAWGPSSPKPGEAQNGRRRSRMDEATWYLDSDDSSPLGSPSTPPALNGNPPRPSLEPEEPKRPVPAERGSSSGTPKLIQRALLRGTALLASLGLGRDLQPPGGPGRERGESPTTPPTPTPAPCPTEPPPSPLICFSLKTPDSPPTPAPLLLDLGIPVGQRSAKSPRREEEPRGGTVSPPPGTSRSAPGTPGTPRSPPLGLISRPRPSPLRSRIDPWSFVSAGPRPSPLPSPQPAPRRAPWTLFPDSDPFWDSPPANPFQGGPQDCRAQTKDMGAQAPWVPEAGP
Compound,Mean Inhib (%) (kinases [1]),Mean Inhib (%) (kinases [2]),Mean Inhib (%) (kinases [3]),Mean Inhib (%) (kinases [4]),Mean Inhib (%) (kinases [5]),Mean Inhib (%) (kinases [6]),Mean Inhib (%) (kinases [7]; [28]),Mean Inhib (%) (kinases [7]; [29]),Mean Inhib (%) (kinases [7]; [30]),Mean Inhib (%) (kinases [7]; [31]),Mean Inhib (%) (kinases [7]; [32]),Mean Inhib (%) (kinases [7]; [33]),Mean Inhib (%) (kinases [8]),Mean Inhib (%) (kinases [9]),Mean Inhib (%) (kinases [10]),Mean Inhib (%) (kinases [11]),Mean Inhib (%) (kinases [12]),Mean Inhib (%) (kinases [13]),Mean Inhib (%) (kinases [14]),Mean Inhib (%) (kinases [15]),also measured
Cc1ccc(NC(=O)c2ccnc(N3CCOCC3)c2)cc1Nc1ccnc(N2CC(C)OC(C)C2)n1 (centres unmarked) [compound 3],3.6%,5.1%,0.6%,1.3%,5.2%,10.2%,5.6%,−10.3%,0.0%,0.3%,12.2%,20.8%,5.5%,1.4%,−6.4%,5.7%,0.0%,−3.5%,4.8%,6.0%,Mean Inhib (%) (kinases [16]): 4.9%; Mean Inhib (%) (kinases [17]): −5.6%; Mean Inhib (%) (kinases [18]; [34]): 5.2%; Mean Inhib (%) (kinases [18]; [35]): 2.0%; Mean Inhib (%) (kinases [18]; [36]): 0.9%; Mean Inhib (%) (kinases [19]): −2.5%; Mean Inhib (%) (kinases [20]): 0.8%; Mean Inhib (%) (kinases [21]): 3.0%; Mean Inhib (%) (kinases [22]): 12.0%; Mean Inhib (%) (kinases [23]): −0.7%; Mean Inhib (%) (kinases [24]): 2.3%; Mean Inhib (%) (kinases [25]): 3.7%; Mean Inhib (%) (kinases [26]): −1.7%; Mean Inhib (%) (kinases [27]): 7.4%
Cc1cc(Oc2ccnc(Nc3ccc(S(N)(=O)=O)cc3)c2)c(-c2ccccn2)nc1C [compound 65],6.0%,14.6%,−0.3%,3.4%,14.8%,0.4%,1.3%,−1.2%,2.3%,−0.6%,−0.5%,−2.4%,4.9%,−2.6%,−3.9%,−1.4%,−3.2%,−2.3%,5.0%,5.1%,Mean Inhib (%) (kinases [16]): 2.7%; Mean Inhib (%) (kinases [17]): −1.9%; Mean Inhib (%) (kinases [18]; [34]): 17.2%; Mean Inhib (%) (kinases [18]; [35]): 8.0%; Mean Inhib (%) (kinases [18]; [36]): 2.5%; Mean Inhib (%) (kinases [19]): −0.8%; Mean Inhib (%) (kinases [20]): 55.2%; Mean Inhib (%) (kinases [21]): 9.7%; Mean Inhib (%) (kinases [22]): −22.4%; Mean Inhib (%) (kinases [23]): −0.8%; Mean Inhib (%) (kinases [24]): 10.9%; Mean Inhib (%) (kinases [25]): 15.7%; Mean Inhib (%) (kinases [26]): 3.4%; Mean Inhib (%) (kinases [27]): 9.1%
